In ChEMBL document CHEMBL1129417, “Glucose transport-enhancing and hypoglycemic activity of 2-methyl-2-phenoxy-3-phenylpropanoic acids” (1996):

Experiments:
Type in all cases: functional
[1] = test system: Mus musculus; assay: compound was tested in vivo for hypoglycemic activity in 6-8 week old C57BL/6J ob/ob mouse at 10 mg/kg
[2] = organism: Rattus norvegicus; assay: Compound was tested for inhibition of gluconeogenesis
[3] = test system: 3T3-L1; assay: compound was evaluated for their acute effects in vitro by measuring 2-Deoxyglucose (2DG) uptake in vehicle treated 3T3-L1 adipocytes at 10 uM dose.
[4] = test system: 3T3-L1; assay: compound was evaluated for their acute effects in vitro by measuring 2-Deoxyglucose (2DG) uptake in vehicle treated 3T3-L1 adipocytes at 30 uM dose.
[5] = test system: 3T3-L1; assay: compound was evaluated for their acute effects in vitro by measuring 2-Deoxyglucose (2DG) uptake in vehicle treated 3T3-L1 adipocytes at 3 uM dose.
[6] = test system: 3T3-L1; assay: Acute effects in vitro by measuring 2-deoxyglucose (2DG) uptake in vehicle treated 3T3-L1 adipocytes at 10 uM dose.
[7] = test system: 3T3-L1; assay: Acute effects in vitro by measuring 2-deoxyglucose (2DG) uptake in vehicle treated 3T3-L1 adipocytes at 30 uM dose.
[8] = test system: Mus musculus; assay: In vivo hypoglycemic activity expressed as glucose lowering relative to positive control in 6-8 week old C57BL/6J ob/ob mouse at 10 mg/kg
[9] = test system: Mus musculus; assay: In vivo hypoglycemic activity expressed as glucose lowering relative to positive control in 6-8 week old C57BL/6J ob/ob mouse at 5 mg/kg.
[10] = organism: Rattus norvegicus; assay: Inhibition of gluconeogenesis in rat; details: Rattus norvegicus; read-out: ED50
[11] = test system: 3T3-L1; assay: compound was evaluated for their acute effects in vitro by measuring 2-Deoxyglucose (2DG) uptake in vehicle treated 3T3-L1 adipocytes at 100 uM dose.
[12] = test system: Mus musculus; assay: compound was tested in vivo for hypoglycemic activity in 6-8 week old C57BL/6J ob/ob mouse at 50 mg/kg
[13] = test system: 3T3-L1; assay: In vitro measurements of 2-Deoxyglucose (2DG) uptake in vehicle treated 3T3-L1 adipocytes at 60 uM dose.
[14] = test system: Mus musculus; assay: compound was tested in vivo for hypoglycemic activity expressed as Glucose lowering relative to positive control in 6-8 week old C57BL/6J ob/ob mouse at 50 mg/kg
[15] = test system: 3T3-L1; assay: In vitro measurements 2-Deoxyglucose (2DG) uptake in vehicle treated 3T3-L1 adipocytes at 100 uM dose.
[16] = test system: 3T3-L1; assay: compound was evaluated for their acute effects in vitro by measuring 2-Deoxyglucose (2DG) uptake in vehicle treated 3T3-L1 adipocytes at 1 uM dose.
[17] = test system: 3T3-L1; assay: In vitro by measurements of 2-Deoxyglucose (2DG) uptake in vehicle treated 3T3-L1 adipocytes at 3 uM dose.
[18] = test system: Mus musculus; assay: In vivo hypoglycemic activity expressed as glucose lowering relative to positive control in 6-8 week old C57BL/6J ob/ob mouse at 1 mg/kg.
[19] = test system: L6; assay: compound was evaluated for their acute effects in vitro by measuring 2-Deoxyglucose (2DG) uptake in vehicle treated L6 […] at 60 uM dose.
[20] = test system: Mus musculus; assay: compound was tested in vivo for hypoglycemic activity expressed as Glucose lowering relative to positive control in 6-8 week old C57BL/6J ob/ob mouse at 25 mg/kg
[21] = test system: Mus musculus; assay: compound was tested in vivo for hypoglycemic activity expressed as Glucose lowering relative to positive control in 6-8 week old C57BL/6J ob/ob mouse at 0.5 mg/kg
[22] = Rattus norvegicus, read-out: ED50

CC(C)c1ccc(CC(C)(Cc2ccc(Cl)cc2)C(=O)O)cc1 (centres undefined)
Hypoglycemic activity [1]: 20%
ED50 [2, 22]: > 10 mg/kg

CC(C)c1ccc(OC(C)(C[N-]SC(F)(F)F)Cc2ccc(Cl)cc2)cc1.[Na+] (centres undefined)
Basal uptake [3]: 132%
Basal uptake [4]: 159%
Basal uptake [5]: 127%
Hypoglycemic activity [1]: <0%
ED50 [2, 22]: > 10 mg/kg

CC(C)c1ccc(CC(C)(Oc2ccc(C(C)C)cc2)C(=O)[O-])cc1.[Na+] (centres undefined)
Basal uptake [6]: 97%
Basal uptake [7]: 93%
Basal uptake [5]: 97%
Hypoglycemic activity [8]: 93%
Hypoglycemic activity [9]: <0%
ED50 [10]: 5 mg/kg

C1CCC(NC2CCCCC2)CC1.CC(C)c1ccc(OC(Cc2ccc(Cl)c(Cl)c2)C(=O)O)cc1 (centres undefined)
Basal uptake [11]: 225%
Hypoglycemic activity [12]: 65%
ED50 [2, 22]: < 50 mg/kg

CC(C)c1ccc2c(c1)CCC(Cc1ccc(Cl)cc1)(C(=O)O)O2 (centres undefined)
Basal uptake [6]: 82%
Basal uptake [7]: 80%
Basal uptake [13]: 114%
Hypoglycemic activity [14]: 119%
Hypoglycemic activity [9]: <0%
ED50 [10]: 5 mg/kg

CC(C)c1ccc(C(F)C(C)(Cc2ccc(Cl)cc2)C(=O)O)cc1 (stereo in doubt; 94)
Hypoglycemic activity ([1]; 10 mg/kg): 63%
ED50 [2]: 10 mg/kg

C1CCC(NC2CCCCC2)CC1.CC(C)c1ccc(OC(Cc2ccccc2C(F)(F)F)C(=O)O)cc1 (centres undefined)
Basal uptake [11]: 191%
Hypoglycemic activity [12]: <0%
ED50 [2, 22]: > 50 mg/kg

CC(C)c1ccc(OC(C(=O)O)c2ccc(Cl)cc2)cc1 (centres undefined)
Basal uptake [15]: 248%
Hypoglycemic activity [14]: <0%
ED50 [10]: > 50 mg/kg

CC(C)c1ccc(OC(C)(Cc2ccc(Cl)cc2)C(=O)NS(=O)(=O)C(F)(F)F)cc1 (centres undefined)
Basal uptake [6]: 232%
Basal uptake [16]: 108%
Basal uptake [7]: 273%
Basal uptake [17]: 130%
Basal uptake [13]: 79%
ED50 [10]: 5 mg/kg

CCCc1cccc(CC(C)(Oc2ccc(C(C)C)cc2)C(=O)[O-])c1.[Na+] (centres undefined)
Basal uptake [6]: 128%
Basal uptake [16]: 123%
Basal uptake [7]: 229%
Basal uptake [17]: 136%
Hypoglycemic activity [8]: 123%
Hypoglycemic activity [18]: 47%
Hypoglycemic activity [9]: 82%
ED50 [10]: 1 mg/kg

CC(C)c1ccc(C(F)C(C)(Cc2ccc(Cl)cc2)C(=O)O)cc1 (stereo in doubt; 95)
Hypoglycemic activity ([1]; 10 mg/kg): 50%
ED50 [2, 22]: 10 mg/kg

CC(C)(C)c1ccc(OC(Cc2ccc(Cl)cc2)C(=O)O)cc1 (centres undefined)
Basal uptake [6]: 92%
Basal uptake [7]: 87%
Basal uptake [13]: <100%
Basal uptake [19]: 84%
Hypoglycemic activity [20]: 53%
ED50 [10]: 25 mg/kg

CCC(c1ccc(Cl)cc1)C(C)(Oc1ccc(C(C)C)cc1)C(=O)O (stereo in doubt; 86)
Basal uptake [6]: 91%
Basal uptake [16]: 97%
Basal uptake [7]: 95%
Hypoglycemic activity ([8]; 10 mg/kg): 71%
ED50 [10]: < 10 mg/kg

CC(C)c1ccc(OC(Cc2ccc3ccccc3c2)C(=O)O)cc1 (centres undefined)
Basal uptake [15]: 143%
Hypoglycemic activity [14]: 45%
ED50 [10]: 50 mg/kg

CC(C)c1ccc(OC(C)(Cc2ccc3c(c2)CCC3)C(=O)[O-])cc1.[Na+] (centres undefined)
Hypoglycemic activity [21]: 34%
Hypoglycemic activity [8]: 126%
Hypoglycemic activity [18]: 83%
Hypoglycemic activity [9]: 121%
ED50 [10]: 0.5 mg/kg

CC(Cc1ccc2c(c1)CCC2)(Oc1ccc(Cc2ccccc2)cc1)C(=O)[O-].[Na+] (centres undefined)
Hypoglycemic activity [21]: 50%
Hypoglycemic activity [8]: 120%
Hypoglycemic activity [18]: 78%
Hypoglycemic activity [9]: 102%
ED50 [10]: 0.5 mg/kg

Cc1ccc(OC(Cc2ccc(Cl)cc2)C(=O)O)cc1 (centres undefined)
Basal uptake [6]: 82%
Basal uptake [7]: 88%
Basal uptake [13]: <100%
Basal uptake [19]: 93%
Hypoglycemic activity [20]: 33%
ED50 [10]: > 25 mg/kg

COc1ccc(CC(Oc2ccc(C(C)C)cc2)C(=O)O)cc1 (centres undefined)
Basal uptake [15]: 127%
Hypoglycemic activity [14]: <0%
ED50 [10]: > 50 mg/kg
